According to patent publication US7795290B2 (Genentech, Inc., priority 2004, dated 2010):

Biological target: T1, AKT1 (Homo sapiens, UniProt P31749)
T1 construct: purchased Upstate 14-276
Assay: HTS ATP-utilizing enzyme assay, off-chip mobility-shift (Caliper HTS 250)
Type: biochemical
Conditions: kinase named = inhibitory activity/selectivity; test compound 10 μM; active = greater than three-sigma from mean
Outline: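 AKT1 activity was measured by off-chip mobility shift (Caliper HTS 250) as the ratio of peptide substrate to phosphorylated product. Test compound was at 10 μM, with 2.5 h incubation at 20–22° C. EDTA wells served as 100% control and DMSO wells as 0%. Hits were called at three-sigma limits.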

T1 sequence (P31749 whole entry): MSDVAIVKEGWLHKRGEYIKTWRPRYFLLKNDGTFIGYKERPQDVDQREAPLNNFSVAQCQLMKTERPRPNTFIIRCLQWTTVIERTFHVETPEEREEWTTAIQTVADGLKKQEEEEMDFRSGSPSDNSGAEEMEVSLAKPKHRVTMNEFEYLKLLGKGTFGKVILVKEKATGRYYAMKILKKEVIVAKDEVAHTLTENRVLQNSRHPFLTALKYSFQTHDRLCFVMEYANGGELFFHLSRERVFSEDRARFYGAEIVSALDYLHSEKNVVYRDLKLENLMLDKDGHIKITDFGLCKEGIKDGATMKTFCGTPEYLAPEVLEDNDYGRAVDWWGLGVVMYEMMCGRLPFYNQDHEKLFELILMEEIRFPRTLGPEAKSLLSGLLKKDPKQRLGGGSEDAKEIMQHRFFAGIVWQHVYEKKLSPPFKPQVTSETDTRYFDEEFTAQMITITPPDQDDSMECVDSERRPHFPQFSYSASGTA

Activity, AKT1:
CN(C(=O)CCN(C(=O)c1cccs1)c1nc(-c2cc3ccccc3o2)cs1)c1ccncc1 [N-(4-(benzofuran-2-yl)thiazol-2-yl)-N-(3-(methyl(pyridin-4-yl)amino)-3-oxopropyl)thiophene-2-carboxamide]
Cc1cc(C(=O)NCCCN(C(=O)c2cccs2)c2nc(-c3cc4ccccc4o3)cs2)nn1C [N-(3-(N-(4-(benzofuran-2-yl)thiazol-2-yl)thiophene-2-carboxamido)propyl)-1,5-dimethyl-1H-pyrazole-3-carboxamide]
O=C(c1ccc(F)cc1)N(CCCN1CCOCC1)c1nc(-c2ccccc2)cs1 [4-fluoro-N-(3-morpholinopropyl)-N-(4-phenylthiazol-2-yl)benzamide]
O=C(c1cccs1)N(CCCN1CCOCC1)c1nc(-c2ccc(-c3ccccc3)cc2)cs1 [N-(4-(biphenyl-4-yl)thiazol-2-yl)-N-(3-morpholinopropyl)thiophene-2-carboxamide]
COc1ccc(-c2csc(N(CCCCCN3CCOCC3)C(=O)c3cccs3)n2)cc1OC [N-(4-(3,4-dimethoxyphenyl)thiazol-2-yl)-N-(5-morpholinopentyl)thiophene-2-carboxamide]
O=C(c1cccs1)N(CCCN1CCOCC1)c1nc(-c2ccccc2C(F)(F)F)cs1 [N-(3-morpholinopropyl)-N-(4-(2-(trifluoromethyl)phenyl)thiazol-2-yl)thiophene-2-carboxamide]
CCOC(=O)C1CCCN(CCCN(C(=O)c2cccs2)c2nc(-c3cc4ccccc4o3)cs2)C1 (centres unmarked) [ethyl 1-(3-(N-(4-(benzofuran-2-yl)thiazol-2-yl)thiophene-2-carboxamido)propyl)piperidine-3-carboxylate]
COc1ccc(-c2csc(N(CCCN3CCOCC3)C(=O)c3ccccc3F)n2)cc1 [2-fluoro-N-(4-(4-methoxyphenyl)thiazol-2-yl)-N-(3-morpholinopropyl)benzamide]
COc1ccc(-c2csc(N(CCCN3CCOCC3)C(=O)c3sccc3C)n2)cc1 [N-(4-(4-methoxyphenyl)thiazol-2-yl)-3-methyl-N-(3-morpholinopropyl)thiophene-2-carboxamide]
CNCCN(C)C(=O)CCN(C(=O)c1cccs1)c1nc(-c2cc3ccccc3o2)cs1 [N-(4-(benzofuran-2-yl)thiazol-2-yl)-N-(3-(methyl(2-(methylamino)ethyl)amino)-3-oxopropyl)thiophene-2-carboxamide]
O=C(c1cccs1)N(CCCn1ccnc1)c1nc(-c2cc3ccccc3o2)cs1 [N-(3-(1H-imidazol-1-yl)propyl)-N-(4-(benzofuran-2-yl)thiazol-2-yl)thiophene-2-carboxamide]
O=C(c1cccs1)N(CCCN1CCOCC1)c1nc(-c2cccc(C(F)(F)F)c2)cs1 [N-(3-morpholinopropyl)-N-(4-(3-(trifluoromethyl)phenyl)thiazol-2-yl)thiophene-2-carboxamide]
O=C(c1ccco1)N(CCCN1CCCCCC1)c1nc(-c2ccccc2)cs1 [N-(3-(azepan-1-yl)propyl)-N-(4-phenylthiazol-2-yl)furan-2-carboxamide]
COc1ccc(-c2csc(N(CCN3CCOCC3)C(=O)c3cccs3)n2)cc1OC [N-(4-(3,4-dimethoxyphenyl)thiazol-2-yl)-N-(2-morpholinoethyl)thiophene-2-carboxamide]
O=C(c1cccs1)N(CCCN1CCOCC1)c1nc(C2CCCCC2)cs1 [N-(4-cyclohexylthiazol-2-yl)-N-(3-morpholinopropyl)thiophene-2-carboxamide]
CC(C)(C)OC(=O)NC1CCN(C(=O)CCCN(C(=O)c2cccs2)c2nc(-c3cc4ccccc4o3)cs2)C1 (centres unmarked) [tert-butyl 1-(4-(N-(4-(benzofuran-2-yl)thiazol-2-yl)thiophene-2-carboxamido)butanoyl)pyrrolidin-3-ylcarbamate]
COc1ccc(-c2csc(N(CCCN3CCOCC3)C(=O)c3ccco3)n2)cc1OC [N-(4-(3,4-dimethoxyphenyl)thiazol-2-yl)-N-(3-morpholinopropyl)furan-2-carboxamide]
COC(=O)C1CCN(C(=O)CCCN(C(=O)c2cccs2)c2nc(-c3cc4ccccc4o3)cs2)CC1 [methyl 1-(4-(N-(4-(benzofuran-2-yl)thiazol-2-yl)thiophene-2-carboxamido)butanoyl)piperidine-4-carboxylate]
CN(C)C(=O)c1ccc(-c2csc(N(CCCN3CCOCC3)C(=O)c3cccs3)n2)cc1 [N-(4-(4-(dimethylcarbamoyl)phenyl)thiazol-2-yl)-N-(3-morpholinopropyl)thiophene-2-carboxamide]
CCN(CC)CCCN(C(=O)c1ccccc1)c1nc(-c2ccc(OC)cc2)cs1 [N-(3-(diethylamino)propyl)-N-(4-(4-methoxyphenyl)thiazol-2-yl)benzamide]
CN(C)CCOc1cccc(-c2csc(N(CCCN3CCOCC3)C(=O)c3cccs3)n2)c1 [N-(4-(3-(2-(dimethylamino)ethoxy)phenyl)thiazol-2-yl)-N-(3-morpholinopropyl)thiophene-2-carboxamide]
COc1ccc(-c2csc(N(CCCN3CCCC3=O)C(=O)c3cccs3)n2)cc1OC [N-(4-(3,4-dimethoxyphenyl)thiazol-2-yl)-N-(3-(2-oxopyrrolidin-1-yl)propyl)thiophene-2-carboxamide]
Cc1c(-c2csc(N(CCCN3CCOCC3)C(=O)c3cccs3)n2)cnn1-c1ccccc1 [N-(4-(5-methyl-1-phenyl-1H-pyrazol-4-yl)thiazol-2-yl)-N-(3-morpholinopropyl)thiophene-2-carboxamide]
O=C1CCCN1CCCN(C(=O)c1ccco1)c1nc(-c2cc3ccccc3o2)cs1 [N-(4-(benzofuran-2-yl)thiazol-2-yl)-N-(3-(2-oxopyrrolidin-1-yl)propyl)furan-2-carboxamide]
O=C(NCCO)C1CCCN(C(=O)CCN(C(=O)c2cccs2)c2nc(-c3cc4ccccc4o3)cs2)C1 (centres unmarked) [1-(3-(N-(4-(benzofuran-2-yl)thiazol-2-yl)thiophene-2-carboxamido)propanoyl)-N-(2-hydroxyethyl)piperidine-3-carboxamide]
CN1CCN(CCCN(C(=O)c2ccco2)c2nc(-c3cc(-c4ccccc4)no3)cs2)CC1 [N-(3-(4-methylpiperazin-1-yl)propyl)-N-(4-(3-phenylisoxazol-5-yl)thiazol-2-yl)furan-2-carboxamide]
CCN(CC)CCCN(C(=O)c1cccs1)c1nc(-c2ccccc2)cs1 [N-(3-(diethylamino)propyl)-N-(4-phenylthiazol-2-yl)thiophene-2-carboxamide]
CN(C)CCNC(=O)c1ccc(-c2csc(N(CCCN3CCOCC3)C(=O)c3cccs3)n2)cc1 [N-(4-(4-(2-(dimethylamino)ethylcarbamoyl)phenyl)thiazol-2-yl)-N-(3-morpholinopropyl)thiophene-2-carboxamide]
O=C(N1CCOCC1)N1CCN(CCCN(C(=O)c2cccs2)c2nc(-c3cc4ccccc4o3)cs2)CC1 [N-(4-(benzofuran-2-yl)thiazol-2-yl)-N-(3-(4-(morpholine-4-carbonyl)piperazin-1-yl)propyl)thiophene-2-carboxamide]
O=C(NCCO)c1ccc(-c2csc(N(CCCN3CCOCC3)C(=O)c3cccs3)n2)cc1 [N-(4-(4-(2-hydroxyethylcarbamoyl)phenyl)thiazol-2-yl)-N-(3-morpholinopropyl)thiophene-2-carboxamide]
O=C(CCN(C(=O)c1cccs1)c1nc(-c2cc3ccccc3o2)cs1)NCCOc1ccccc1 [N-(4-(benzofuran-2-yl)thiazol-2-yl)-N-(3-oxo-3-(2-phenoxyethylamino)propyl)thiophene-2-carboxamide]
O=C(c1ccccc1)N(CCCN1CCCCCC1)c1nc(-c2ccccc2)cs1 [N-(3-(azepan-1-yl)propyl)-N-(4-phenylthiazol-2-yl)benzamide]
COc1ccc(-c2csc(N(CCCN3CCOCC3)C(=O)c3cccc(C)c3)n2)cc1 [N-(4-(4-methoxyphenyl)thiazol-2-yl)-3-methyl-N-(3-morpholinopropyl)benzamide]
O=C(c1cccs1)N(CCCN1CCOCC1)c1nc(-c2cccc(Cl)c2)cs1 [N-(4-(3-chlorophenyl)thiazol-2-yl)-N-(3-morpholinopropyl)thiophene-2-carboxamide]
O=C(c1cccs1)N(CCCN1CCOCC1)c1nc(-c2ccc(OC(F)(F)F)cc2)cs1 [N-(3-morpholinopropyl)-N-(4-(4-(trifluoromethoxy)phenyl)thiazol-2-yl)thiophene-2-carboxamide]
O=C(c1cccs1)N(CCCc1ccccc1)c1nc(-c2cc3ccccc3o2)cs1 [N-(4-(benzofuran-2-yl)thiazol-2-yl)-N-(3-phenylpropyl)thiophene-2-carboxamide]
O=C(c1cccs1)N(CCCN1CCOCC1)c1nc(-c2ccccc2F)cs1 [N-(4-(2-fluorophenyl)thiazol-2-yl)-N-(3-morpholinopropyl)thiophene-2-carboxamide]
COc1ccc(-c2csc(N(CCCN3CCOCC3)C(=O)c3cccs3)n2)cc1 [N-(4-(4-methoxyphenyl)thiazol-2-yl)-N-(3-morpholinopropyl)thiophene-2-carboxamide]
